Publication PMC4269219 (International journal of andrology, 2010)

What was measured:
[1] = system: 5α-reductase; details: finasteride 2 mg daily; ref Steiner, 1996; cited from earlier work
[2] = system: endogenous testosterone production; details: 300 µg/kg subcutaneous, normal healthy men; ref Herbst et al., 2004; cited from earlier work
[3] = Steady-state pharmacokinetics of oral TU alone or with finasteride; assay type: in vivo, men; details: seventh day of dosing, all treatments (Fig. 2A)

CC(C)(C)NC(=O)[C@H]1CC[C@H]2[C@@H]3CC[C@H]4NC(=O)C=C[C@]4(C)[C@H]3CC[C@]12C [finasteride]
Reduction of circulating levels of DHT [1]: 50%

acyline
Duration of testosterone suppression [2]: 2 weeks | Time to suppression of testosterone to castrate levels [2]: ≤ 24 h

CCCCCCCCCCC(=O)O[C@H]1CC[C@H]2[C@@H]3CCC4=CC(=O)CC[C@]4(C)[C@H]3CC[C@]12C [TU + placebo, testosterone undecanoate]
Time after dosing at which mean serum testosterone concentrations peaked [3]: 4 h
